Assay results reported in patent US6667336B2, “GlyT-1 inhibitors” (NPS Allelix Corp., priority 2002, dated 2003).
Values joined by “and” are separate entries in the source; they are usually repeats but may differ in a detail not shown here. Equal entries are not always repeated.

Tested on: male CD-1 mice
Assay: 5 day chronic oral dosing toxicity study in mice (clinical signs)
Format: in vivo
Design: key to Clinical signs (observation code), Day 1, 24 hours / Clinical signs (observation code), Day 2, 24 hours / Clinical signs (observation code), Day 3, 24 hours / Clinical signs (observation code), Day 4, 24 hours / Clinical signs (observation code), Day 5, 24 hours / Clinical signs (observation code), Day 1, 4 hours / Clinical signs (observation code), Day 2, 4 hours / Clinical signs (observation code), Day 3, 4 hours / Clinical signs (observation code), Day 4, 4 hours / Clinical signs (observation code), Day 5, 4 hours: 0: Appeared Normal; 1: Activity (inc./dec.); 2: Sedation/Lethargy; 3: Piloerection; 4: Stereotypy; 5: Soft Stool; 6: Chromodacryorrhea; 7: Epistaxis; 8: Cyanosis; 9: Flaccidity; 10: Respiration; 11: Hunched Posture; 12: Enophthalmia; 13: Exophthalmia; 14: Palpabral Ptosis; 15: Loss of Righting; 16: Chromaturia; 17: Salivation; 18: Lacrimation; 19: Miosis; 20: Mydriasis; 21: Rigidity; 22: Ataxia; 23: Tremors; 24: Convulsions; 25: Catalepsy; 26: Lateral Recumbency; 27: Death
Details: 40 mg/kg/day PO, male CD-1 mice, one line per animal
Description: This example illustrated a 5 day chronic oral dosing toxicity study with GlyT1 inhibitors. […] Behavioral observations (clinical signs) and body weights were recorded daily for all compounds tested. Male CD-1 mice were purchased from Charles River Labs (Kingston, N.Y.). The animals weighed between 20-25 grams upon arrival. Animals were acclimatized in a temperature/humidity (72° ±5° F./50%±5%) controlled vivarium, with a common 12 hour light/dark cycle (Lights on 0700 hrs) for 5 days prior to test. All animals were allowed food (Purina Labdiete® Rodent chow # 5001) and water (supplied by Elizabethtown Water Company) ad libitum during the acclimation period and throughout the study. On the day prior to test initiation animals were randomly assigned to groups: All animals chosen for test weighed at least 20 grams and appeared in good condition. Each animal was dosed once daily for 5 days. Animals remained on site for a 3 day recovery period following the chronic dosing period.
A stock concentration of each test compound was prepared fresh on the day of study initiation. Aliquots were diluted to the needed concentrations for daily dosing. Stock solutions were kept in a refrigerator when not in use. Each compound was dissolved in a small amount of distilled water. One equivalent of sodium hydroxide (2 N) may have been added to aid in dissolution of each test agent. Vehicle was then added quantum sufficiat to give the final volume. Final volumes were adjusted to reflect percent free base when appropriate. The vehicle used in this experiment was Hydroxypropyl-β-cyclodextrine (HPCD) Acros, lot 011849601, dissolved in distilled water to form a 10% weight/volume concentration. The pH was adjusted, using sodium hydroxide (2 N), to equal that of the test agents (usually between 8 to 10). All prepared test compounds were either in solution, and clear, or in suspension, and slightly cloudy. Suspensions were mixed immediately prior to use.
All animals were administered either test compound or vehicle Per Os (PO) via 21 gauge gavage needles, in volumes of 10.0 ml/kg. Daily body weights were used to determine individual dosing volumes. All test compounds were weighed on a Denver Instruments analytical balance (model # A-250). Animals were weighed on a top loading Ohaus portable balance model # LS2000.
Animals were assessed for overt behaviors (clinical signs) immediately following administration of test agents, then again at 4 and 24 hours. Animals were assessed for 27 separate clinical signs:
Toxicity data obtained through the assay as described above is provided in Tables 1 to 14 for Compounds Gi to Gxiv inclusive. The animals were observed immediately following administration and again at 4 hours and 24 hours. Observations are reported using the code number from the following chart: […]

Structure (SMILES) | Clinical signs (observation code), Day 1, 4 hours | Clinical signs (observation code), Day 1, 24 hours | Clinical signs (observation code), Day 2, 4 hours | Clinical signs (observation code), Day 2, 24 hours | Clinical signs (observation code), Day 3, 4 hours | Clinical signs (observation code), Day 3, 24 hours | Clinical signs (observation code), Day 4, 4 hours | Clinical signs (observation code), Day 4, 24 hours | Clinical signs (observation code), Day 5, 4 hours | Clinical signs (observation code), Day 5, 24 hours
Cc1cccc(-c2ccc(/C(=C/CN(C)CC(=O)O)c3sccc3C)cc2)c1 [Compound G(xiii), (Z)-N-(1-(4-(3-Methylphenyl)phenyl)-1-(2-(3-methylthienyl))prop-1-en-3-yl)sarcosine] | 0 | 0 | 0 | 0 | 0 | 0 | 0 | 0 | 0 | 
CC(C)c1ccc(-c2ccc(/C(=C/CN(C)CC(=O)O)c3ccsc3)cc2)cc1 [Compound G(i), (Z)-N-(1-(4-(4-Isopropylphenyl)phenyl)-1-(3-thienyl)prop-1-en-3-yl)sarcosine] | 0 | 0 | 0 | 0 | 0 | 0 | 0 | 0 | 0 | 0
COc1cccc(-c2ccc(/C(=C/CN(C)CC(=O)O)c3cscc3C)cc2)c1 [Compound G(xii), (Z)-N-(1-(4-(3-Methoxyphenyl)phenyl)-1-(3-(4-methylthienyl))prop-1-en-3-yl)sarcosine] | 0 | 0 | 0 | 0 | 0 | 0 | 0 | 0 | 0 | 
Cc1cscc1/C(=C\CN(C)CC(=O)O)c1ccc(-c2ccsc2)cc1 [Compound G(x), (Z)-N-(1-(4-(3-Thienyl)phenyl)-1-(3-(4-methylthienyl))prop-1-en-3-yl)sarcosine] | 0 | 0 | 0 | 0 | 0 | 0 | 0 | 0 | 0 | 
CN(C/C=C(/c1ccc(-c2cccs2)cc1)c1ccsc1)CC(=O)O [Compound G(iii), (Z)-N-(1-(4-(2-Thienyl)phenyl)-1-(3-thienyl)prop-1-en-3-yl)sarcosine] | 0 | 0 | 0 | 0 | 0 | 0 | 14 and 0 | 0 | 0 | 0
